{"source": "patent US8623338B2", "about": "“Methionine-derived peptidomimetics and their use in the protection of mitochondria of cutaneous cells” (Exsymol S.A.M., priority 2010, dated 2014)", "key": {"[1]": {"system": "cell line of fibroblasts called V79", "assay": "Restoration of cellular ATP levels in V79 fibroblasts exposed to H2O2 stress (luminometry, ATPlite 1step)", "assay_type": "cell-based, hamster", "details": "V79 cells", "description": "Test 1: Evidence of the Ability of the Methionine-derived Peptidomimetics to Restore the Cellular ATP Levels on Cells Exposed to a Stress (H2O2):\nThe experimental study has been carried out on a cell line of fibroblasts called V79, and seeded in a 96 well plate at the rate of 5000 cells per well in 100 μl of culture medium (containing 10% foetal calf serum). This one is then replaced in each of the well by 100 μl of medium containing some peptidomimetics according to the invention, at the concentration of 7.5 mM or 10 mM. After 2 hours of incubation, the medium is removed from all wells. Then the cells are submitted to a stress with the addition of a medium containing 50 μl of hydrogen peroxide H2O2 (4 ppm). After 8 additional hours of incubation, the ATP average concentration is measured by luminometry in presence of luciferin (“ATPlite lstep” kit) and through a standard curve prepared from highly purified ATP.\nThe results, expressed as the average values obtained from three independent experiments, are presented in the hereafter table 1, in comparison with a control."}, "[2]": {"assay": "Percutaneous absorption on human skin explants (Frantz-type cells, OECD guideline 428)", "assay_type": "in vitro ADME", "details": "1% solution, 24 hours contact", "text": "Test 2: Percutaneous Absorption Study of the Methionine-derived Peptidomimetics on Human Skin Explants: The values of permeability coefficient (Kp) were obtained from a previously frozen abdominal […] human skin, in accordance with protocol described in the OECD guidelines n° 428 on cutaneous absorption studies. Experimentally, the skin explants were placed on Frantz-type cells in passive diffusion, piloted by the “MicroettePlus Hanson Research” system. The tested products are applied in a non-occlusive way. After that skin was laid on the cells, 500 μl of peptidomimetic according to the invention (1% solution) were placed in each of the cells and for a total contact time of 24 hours. At the end of these ones, the remaining product is sampled and the skin surface rinsed for extraction and for measure of the absorbed quantity, then for the determination of the permeability coefficient expressed under logarithmic type (Log Kp)."}, "[3]": {"system": "O2°− superoxide anion present in mitochondria of V79 cells", "assay": "Mitochondrial oxidative stress in V79 cells under H2O2 stress (MitoSOX Red, flux cytometry)", "assay_type": "cell-based, hamster", "details": "for % of positive cells to MitoSOX: V79 cells", "text": "(§1) Test 3: Evidence of the Protective Effect of the N-Acety-(DL)-Methionyl-4-(Methylthio)Propylamine Compound on the Mitochondrial Oxidative Stress and on the Mitochondrial Biogenesis\n(§2) Principles: measures of the mitochondrial intracellular oxidative stress and detection of the mitochondrial biogenesis were achieved by flux cytometry with the following fluorophore markers: • the “MitoSOX™ Red” red fluorescent probe below-designed “MitoSOX” (detection to λ=580 nm; supplier: Invitrogen) allows to specifically detect the O2°^− superoxide anion present in mitochondria (due to its strong affinity for mitochondria), • the “MitoTracker® Green FM” green fluorescent probe below-designed “Mitogreen” (detection to λ=516 nm; supplier: Invitrogen) allows to quantify the mitochondrial mass (or related number of mitochondria per cell).\n(§3) Experimentally, tests were achieved on a fibroblastic line of hamster “V79”, maintained by lining out in a “EMEM” complete culture medium (with 10% foetal calf serum) in humid atmosphere at 37° C. and 5% CO2. The V79 cells are seeded then incubated 24 hours in […] at the rate of 2.5·10^5 cells per well in 3 ml of the same culture medium, then exposed 1h30 to a stress with the addition of a medium containing hydrogen peroxide H2O2 (15 ppm).\n(§4) After trypsination, the cells are incubated at 37° C. for 15 minutes in 1 ml of “EMEM” complete culture medium and containing the above-mentioned markers “MitoSOX” (at the final concentration of 5 μM) and “Mitogreen” (at the final concentration of 200 nM), for respective detection: • of the mitochondrial oxidative stress (expressed in % of positive cells) • of the mitochondrial mass per cell (expressed in % of MFI (“Mean Fluorescence Intensity”) in relation to the control).\n(§5) The results, expressed as the average values obtained from four independent experiments, are presented in the hereafter tables 3a and 3b, in comparison with those obtained for the N-acetyl-cysteine chosen as a reference protective agent at the concentration of 5 mM."}, "[4]": {"system": "mitochondrial mass of V79 cells", "assay": "Mitochondrial mass / biogenesis in V79 cells under H2O2 stress (MitoTracker Green FM, flux cytometry)", "assay_type": "cell-based, hamster", "details": "Mitogreen", "text": "as §1, §2, §3, §4, §5"}, "[5]": {"assay": "Hydroxyl radical scavenging speed constant (deoxyribose / thiobarbituric acid method)", "details": "pH 7.4, 37° C., one hour", "text": "Test 5: Evidence of the Antioxidant Effect of the N-Acety-(DL)-Methionyl-4-(Methylthio)Propylamine and N-Propionyl-(DL)-Methionyl-4-(Methylthio)Propylamine on the Hydroxyl Radical\nThe method, described by Rehman A. and coll. (British J. Pharmacol. (1997), vol. 122, pp. 1702-1706), is used for the determination of the scavenging speed constant of the hydroxyl radical [Ks (OH°)], the peptidomimetic according to the invention being compared to two reference antioxidants, mannitol and ascorbic acid (vitamin C).\nExperimentally, the tested substance is dissolved in a buffered medium of pH 7.4 to which is added a OH° generating system (ascorbate/iron/EDTA) in presence of deoxyribose. After one hour of incubation at 37° C., the reaction is stopped with the help of trichloroacetic acid. After colorimetric visualization with thiobarbituric acid, the absorbance is measured at 532 nm for different concentrations, then the relative Ks (OH°) is calculated for each of the substances."}, "[6]": {"assay": "Whitening test of pyrogallol red by peroxynitrite ions", "details": "inhibition of pyrogallol red (50 μM) oxidation by ONOO− (25 μM), pH 7.0, 5 minutes", "text": "Test 6: Evidence of the Antioxidant Effect of the […])Propylamine Compound on Peroxynitrite Ions The method so-called “whitening test of the pyrogallol red (PR)”, described by Nath V. B. and coll."}, "[7]": {"details": "reference antioxidants, literature footnotes; cited from earlier work"}, "[8]": {"details": "literature value (Mitragotri 2003); cited from earlier work"}}, "note": "pIC50: −log10 of the molar value. “And” between values parts separate entries of the source, which are not always exact repeats. Equal entries are not always repeated. Where two headings read alike, the source gives them in different places. Marks after values point to notes of the source that are not given here.", "data": [{"compound": "CSCCCNC(=O)C(CCSC)NC(C)=O", "note": "(stereo not drawn) [N-acetyl-(DL)-methionyl-4-(methylthio)propylamine]", "values": [{"measurement": "ATP", "setting": "[1]; compound 7.5 mM + H2O2 (4 ppm), 8 h", "result": 483, "unit": "nM"}, {"measurement": "ATP", "setting": "[1]; compound 7.5 mM, no H2O2", "result": 591, "unit": "nM"}, {"measurement": "Kp", "setting": "[2]", "result": 0.000109, "unit": "cm/h"}, {"measurement": "effect on intramitochondrial stress (MitoSOX and Mitogreen)", "setting": "[3]; V79 cells + H2O2, in words, both tables 3a and 3b", "result": "ability to reduce the effect of intramitochondrial stress"}, {"measurement": "% of positive cells to MitoSOX", "setting": "[3]; 7.5 mM + H2O2 (15 ppm, 1h30)", "result": 40.3, "unit": "%"}, {"measurement": "MFI (% control)", "setting": "[4]; 7.5 mM + H2O2 (15 ppm, 1h30)", "result": 123.5, "unit": "% control"}, {"measurement": "MFI (% control)", "setting": "[4]; 10 mM + H2O2 (15 ppm, 1h30)", "result": 127.5, "unit": "% control"}, {"measurement": "Ks(OH°)", "setting": "[5]", "result": "6.1 10^9 · M^−1 · s^−1"}, {"measurement": "pIC50", "setting": "[6]", "result": 2.99}]}, {"compound": "CC(=O)N[C@@H](CS)C(=O)O", "note": "[N-acetyl-cysteine, reference compound]", "values": [{"measurement": "% of positive cells to MitoSOX", "setting": "[3]; 5 ppm + H2O2 (15 ppm, 1h30)", "result": 15.2, "unit": "%"}, {"measurement": "MFI (% control)", "setting": "[4]; 5 ppm + H2O2 (15 ppm, 1h30)", "result": 74.4, "unit": "% control"}]}, {"compound": "CCC(=O)NC(CCSC)C(=O)NCCCSC", "note": "(stereo not drawn) [N-propionyl-(DL)-methionyl-4-(methylthio)propylamine]", "values": [{"measurement": "ATP", "setting": "[1]; compound 10 mM + H2O2 (4 ppm), 8 h", "result": 449, "unit": "nM"}, {"measurement": "ATP", "setting": "[1]; compound 10 mM, no H2O2", "result": 528, "unit": "nM"}, {"measurement": "Kp", "setting": "[2]", "result": "9.7e-05", "unit": "cm/h"}, {"measurement": "Ks(OH°)", "setting": "[5]", "result": "5.7 10^9 · M^−1 · s^−1"}]}, {"compound": "Cc1c(C)c2c(c(C)c1O)CCC(C)(C(=O)O)O2", "note": "(stereo not shown) [Trolox, carboxylic 2-(6-hydroxy-2,5,7,8-tetramethylchromane) acid, reference compound]", "values": [{"measurement": "pIC50", "setting": "[6]", "result": 4.08}]}, {"compound": "O=C1O[C@H]([C@@H](O)CO)C(O)=C1O", "note": "[ascorbic acid]", "values": [{"measurement": "Ks(OH°)", "setting": "[7]", "result": "10.1** 10^9 · M^−1 · s^−1"}]}, {"compound": "Cn1c(=O)c2c(ncn2C)n(C)c1=O", "note": "[caffeine]", "values": [{"measurement": "Kp", "setting": "[8]", "result": "1 · 10^−4** cm · h^−1"}]}, {"compound": "OC[C@@H](O)[C@@H](O)[C@H](O)[C@H](O)CO", "note": "[mannitol]", "values": [{"measurement": "Ks(OH°)", "setting": "[7]", "result": "1.6 10^9 · M^−1 · s^−1 and 1.9 10^9 · M^−1 · s^−1"}]}]}
